Measured values from US20220409570A1, “COMPOSITION OF N-PALMITOYL-ETHANOLAMIDE AND BAICALEIN IN CO-MICRONIZED FORM” (EPITECH GROUP S.P.A., priority 2021, published 2022).

Assays:
Format in all cases: in vivo, Male Sprangue Dawley rats
PSA = test: Western blot of PSA in prostate tissue of BPH rats; details: per os daily for 14 days, co-micronized PEA-Baicalein 10 mg/kg, um-PEA 9 mg/kg, Baicalein 1 mg/kg, vs BPH+vehicle, FIG. 2D
From the text: (§1) Male Sprangue Dawley rats (200-250 gr, Envigo, Italy) fed ad libitum and housed in cages with controlled sleep/wake cycle were used for the in vivo experimentation. Before the start of the experimentation, the animals were subjected to an acclimatization period of one week considering all the experimental procedures and protocols, compliant with the principles of care and welfare of laboratory animals approved by the Italian Ministry of Health and European directives (Italian Legislative Decree 2014/26 and EU Directive 2010/63) and by the OPBA of the University of Messina. […]
(§2) The animals were euthanized 14 days after the start of the experimentation. […] Specifically, the DHT levels were analyzed in the plasma samples with the commercially available Enzyme-linked Immunosorbent Assay (ELISA) (My BioSource). The samples were dosed with the microplate reader and the absorbance was read spectrophotometrically at 450 nm. […] The protein expression was quantified by densitometry (BIORAD ChemiDoc™ XRS+software) and normalized to the housekeeping gene β-actin.

AR = test: Western blot of AR in prostate tissue of BPH rats; details: per os daily for 14 days, co-micronized PEA-Baicalein 10 mg/kg, um-PEA 9 mg/kg, Baicalein 1 mg/kg, vs BPH+vehicle, FIG. 2C
From the text: as §1, §2

5α-red 2 = test: Western blot of 5α-red 2 in prostate tissue of BPH rats; details: per os daily for 14 days, co-micronized PEA-Baicalein 10 mg/kg, um-PEA 9 mg/kg, Baicalein 1 mg/kg, normalized to β-actin, FIG. 2B
From the text: as §1, §2

Bax = test: Western blot of pro-apoptotic factor Bax in prostate tissue of BPH rats; details: per os daily for 14 days, co-micronized PEA-Baicalein 10 mg/kg, um-PEA 9 mg/kg, Baicalein 1 mg/kg, vs BPH+vehicle, FIG. 3C
From the text: as §1, §2

Bcl-2 = test: Western blot of anti-apoptotic factor Bcl-2 in prostate tissue of BPH rats; details: per os daily for 14 days, co-micronized PEA-Baicalein 10 mg/kg, um-PEA 9 mg/kg, Baicalein 1 mg/kg, vs BPH+vehicle, FIG. 3B
From the text: as §1, §2

DHT = test: Serum DHT levels (ELISA) in rats with testosterone propionate-induced BPH; details: per os daily for 14 days, co-micronized PEA-Baicalein 10 mg/kg (9:1), um-PEA 9 mg/kg, Baicalein 1 mg/kg, vs BPH+vehicle, FIG. 2A
From the text: as §1, §2

[1] = tested on: testosterone propionate-induced BPH (Benign Prostatic Hyperplasia); test: Weight of the prostate in BPH rats; details: per os daily for 14 days, co-micronized PEA-Baicalein 10 mg/kg, um-PEA 9 mg/kg, FIG. 3A
From the text: as §1, §2

O=c1cc(-c2ccccc2)oc2cc(O)c(O)c(O)c12 [Baicalein, 5,6,7-trihydroxyflavone]
Expression (tissue levels) of PSA (WB densitometry) (PSA): did not bring significant changes
Expression (tissue levels) of AR (WB densitometry) (AR): did not bring significant changes
Expression of the 5α-red 2 protein in prostate tissue (WB densitometry) (5α-red 2): not capable of reducing the expression of such an enzyme
Expression of the pro-apoptotic factor Bax (WB densitometry) (Bax): did not show a statistically significant change
Levels of the anti-apoptotic factor Bcl-2 (WB densitometry) (Bcl-2): did not show a statistically significant change
Serum levels of DHT (DHT): markedly elevated

CCCCCCCCCCCCCCCC(=O)NCCO [um-PEA, Palmitoylethanolamide]
Weight of the prostate [1]: progressive decrease in prostate weight
Expression (tissue levels) of PSA (WB densitometry) (PSA): significantly greater and clearer effect, with respect to um-PEA alone
Expression of the 5α-red 2 protein in prostate tissue (WB densitometry) (5α-red 2): more than the um-PEA alone at 9 mg/kg, significantly reduces the expression of the enzyme 5α-red 2
Expression of the pro-apoptotic factor Bax (WB densitometry) (Bax): decidedly minor effect and with lower statistical significance
Levels of the anti-apoptotic factor Bcl-2 (WB densitometry) (Bcl-2): decidedly minor effect and with lower statistical significance
Serum levels of DHT (DHT): more than the um-PEA (9 mg/kg), significantly reduces serum DHT
